Reference: US20250154163A1, “Pyrimidinone-Containing 17-Beta-Hydroxysteroid Dehydrogenase Type 13 Inhibitors” (ENANTA PHARMACEUTICALS, INC., priority 2023, published 2025)
Structures can show the parent of a compound that is named as a salt.

Experiments:
[1] = target: T1, human HSD17β13 (stable HEK293T cell line overexpressing human HSD17β13) (Homo sapiens, UniProt Q7Z5P4); assay: HSD17β13 inhibitor cell-based screening assay (conversion of estradiol-d2 to estrone-d2 by RF-MS); settings: conversion of estradiol-d2 to estrone-d2 after 24 hours
T1 construct: expressed in transfected cells
T1 sequence (Q7Z5P4 20-300): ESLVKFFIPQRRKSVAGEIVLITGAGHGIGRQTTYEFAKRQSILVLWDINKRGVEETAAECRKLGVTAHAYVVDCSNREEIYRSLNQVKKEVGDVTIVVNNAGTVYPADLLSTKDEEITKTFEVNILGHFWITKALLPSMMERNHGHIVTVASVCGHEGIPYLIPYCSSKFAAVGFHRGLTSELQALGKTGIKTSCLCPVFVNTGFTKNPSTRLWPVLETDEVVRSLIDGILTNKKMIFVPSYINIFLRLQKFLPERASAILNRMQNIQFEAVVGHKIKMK
Outline: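 Cellular IC50 is based on 24-h conversion of estradiol-d2 (5 μM final) to estrone-d2, measured by RF-MS in acetonitrile-precipitated supernatants. Assay uses human HSD17β13-overexpressing HEK293T cells (7.5E3/well, 1% charcoal/dextran FBS MEM), with compounds dosed as a 9-point 1:3 series to 10 μM final. ATPlite luminescence on overexpressing and parent lines measured viability.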

[2] = target: T2, Recombinant human 17β-HSD13 (Homo sapiens, UniProt Q7Z5P4); assay: 17β-HSD13 rapid-fire mass spectrometry assay (RF/MS assay); format: biochemical; settings: inhibition of 17β-HSD13, RF/MS assay; HSD17B13 80 nM, LTB4 10 μM, NAD+ 0.5 mM, RT 3 h
T2 construct: host or cells: Sf9 insect cells
T2 sequence (Q7Z5P4 20-300): T1 sequence (Q7Z5P4 20-300)
Text: 17(3-HSD13 rapid-fire mass spectrometry assay (RF/MS assay). Recombinant human 17β-HSD13 was expressed and purified from sf9 cells at Charles River Labs (Saffron Walden, UK). Leukotriene B4 (Catalog #71160-24-2) and 12-oxoleukotriene B4 (Catalog #20140) were purchased from Cayman Chemicals (Ann Arbor, MI). NAD+ (Catalog #N8285), BSA (Catalog #A7030), DMSO (Catalog #D2650), and Tween-20 (Catalog #11332465001) were purchased from Sigma (St. Louis, MO). Formic acid (Catalog #28905) was from ThermoFisher Scientific and 384 deep well PP microplates (Catalog #784261) were from Greiner Bio-One. In a typical IC50 assay performed in a 384w PP microplate, test compounds (0-100 μM) were incubated with HSD17B13 (80 nM), LTB4 (10 μM), and NAD^+ (0.5 mM) in 10 μL assay buffer (20 mM Tris (pH 7.5), BSA (0.005%), and Tween-20 (0.01%)) at RT for 3 h. The assays were quenched by adding 20 μL of 0.15% aqueous formic acid and the plates were frozen at −80° C. RF/MS analysis was performed at PureHoney Technologies (Billerica, MA) on a RapidFire RF300 system (Agilent Technologies, Inc.) coupled to an API 4000 triple quadrupole mass spectrometer (Sciex) equipped with Agilent RapidFire cartridge type A (C4). The mobile phase was 0.09% formic acid and 0.01% trifluoracetic acid in water (Buffer A) and 0.09% formic acid and 0.01% trifluoracetic acid in 80% aqueous acetonitrile (Buffer B). The RapidFire method conditions were the following: 250 ms aspirate, 3000 ms load/desalt, 4000 ms elute, and 500 ms re-equilibrate. RF-MS/MS was performed in negative polarity (−4500 V), the source temperature was 650° C., and gas 1 and gas 2 settings for nitrogen were set to 50. The curtain gas and collision gas were also nitrogen and were set to 20 and 12, respectively. Leukotriene B4 (335.3) and 12-oxoLeukotriene B4 (333.3) SRM transitions were optimized with Discovery Quant software and extracted ion counts for these analytes were determined.
Data Analysis. 17β-HSD13 enzyme activity was measured as percent conversion of extracted ion counts and normalized to high and low controls to determine percent residual activity at various concentrations of test compounds. Data was fitted to normalized activity (variable slope) versus concentration fit in GraphPad Prism 7 to determine IC50. All experiments were run in duplicates.
By using the above method, the inhibition of 17β-HSD13 was evaluated for the compounds of Formula (I). IC50 ranges are as follows: A is <0.1 μM; B is 0.1 μM-1.0 μM; C is 1.0 μM-10 μm; and D is >10 μM.

SMILES | IC50 [1] [µM] | IC50 [2] [µM]
COc1ccc(-c2nc3sc4c(C(=O)O)cccc4c3c(=O)n2Cc2cnco2)c(C2CC2)c1 [Example 2, 2-(2-cyclopropyl-4-methoxyphenyl)-3-(oxazol-5-ylmethyl)-4-oxo-3,4-dihydrobenzo[4,5]thieno[2,3-d]pyrimidine-8-carboxylic acid] | 1 to 100 | 0.1 to 1
COc1ccc(-c2nc3sc4c(C(N)=O)cccc4c3c(=O)n2Cc2cnco2)c(C2CC2)c1 [Example 3, 2-(2-cyclopropyl-4-methoxyphenyl)-3-(oxazol-5-ylmethyl)-4-oxo-3,4-dihydrobenzo[4,5]thieno[2,3-d]pyrimidine-8-carboxamide] | 1 to 100 | 1 to 10
COc1ccc(-c2nc3sc4c(NC(C)=O)cccc4c3c(=O)n2Cc2cnco2)c(C2CC2)c1 [Example 4, N-(2-(2-cyclopropyl-4-methoxyphenyl)-3-(oxazol-5-ylmethyl)-4-oxo-3,4-dihydrobenzo[4,5]thieno[2,3-d]pyrimidin-8-yl)acetamide] | 1 to 100 | > 10
COc1ccc(-c2nc3sc4c(N(C(C)=O)C(C)=O)cccc4c3c(=O)n2Cc2cnco2)c(C2CC2)c1 [Example 5, N-acetyl-N-(2-(2-cyclopropyl-4-methoxyphenyl)-3-(oxazol-5-ylmethyl)-4-oxo-3,4-dihydrobenzo[4,5]thieno[2,3-d]pyrimidin-8-yl)acetamide] | 1 to 100 | > 10
COc1ccc(-c2nc3sc4c(N)cccc4c3c(=O)n2Cc2cnco2)c(C2CC2)c1 [Example 6, 8-amino-2-(2-cyclopropyl-4-methoxyphenyl)-3-(oxazol-5-ylmethyl)benzo[4,5]thieno[2,3-d]pyrimidin-4(3H)-one] | 1 to 100 | > 10
COc1ccc(-c2nc3sc4c(NS(C)(=O)=O)cccc4c3c(=O)n2Cc2cnco2)c(C2CC2)c1 [Example 7, N-(2-(2-cyclopropyl-4-methoxyphenyl)-3-(oxazol-5-ylmethyl)-4-oxo-3,4-dihydrobenzo[4,5]thieno[2,3-d]pyrimidin-8-yl)methanesulfonamide] | 1 to 100 | > 10
COc1ccc(-c2nc3sc4c(OC)cccc4c3c(=O)n2Cc2cnco2)c(C2CC2)c1 [Example 8, 2-(2-cyclopropyl-4-methoxyphenyl)-8-methoxy-3-(oxazol-5-ylmethyl)benzo[4,5]thieno[2,3-d]pyrimidin-4(3H)-one] | 1 to 100 | > 10
COc1ccc(-c2nc3sc4c(-c5ncco5)cccc4c3c(=O)n2Cc2cnco2)c(C2CC2)c1 [Example 9, 2-(2-cyclopropyl-4-methoxyphenyl)-8-(oxazol-2-yl)-3-(oxazol-5-ylmethyl)benzo[4,5]thieno[2,3-d]pyrimidin-4(3H)-one] | 1 to 100 | > 10
CCCCc1cccc2c1sc1nc(-c3ccc(OC)cc3C3CC3)n(Cc3cnco3)c(=O)c12 [Example 10, 8-butyl-2-(2-cyclopropyl-4-methoxyphenyl)-3-(oxazol-5-ylmethyl)benzo[4,5]thieno[2,3-d]pyrimidin-4(3H)-one] | 0.1 to 0.5 | > 10
COc1ccc(-c2nc3sc4c(B(O)O)cccc4c3c(=O)n2Cc2cnco2)c(C2CC2)c1 [Example 11, (2-(2-cyclopropyl-4-methoxyphenyl)-3-(oxazol-5-ylmethyl)-4-oxo-3,4-dihydrobenzo[4,5]thieno[2,3-d]pyrimidin-8-yl)boronic acid] | 0.5 to 1 | 0.1 to 1
COc1ccc(-c2nc3sc4c(F)cccc4c3c(=O)n2Cc2cnco2)c(C2CC2)c1 [Example 13, 2-(2-cyclopropyl-4-methoxyphenyl)-8-fluoro-3-(oxazol-5-ylmethyl)benzo[4,5]thieno[2,3-d]pyrimidin-4(3H)-one] | 1 to 100 | > 10
C=Cc1cccc2c1sc1nc(-c3ccc(OC)cc3C3CC3)n(Cc3cnco3)c(=O)c12 [Example 14, 2-(2-cyclopropyl-4-methoxyphenyl)-3-(oxazol-5-ylmethyl)-8-vinylbenzo[4,5]thieno[2,3-d]pyrimidin-4(3H)-one] | 1 to 100 | > 10
COc1ccc(-c2nc3sc4c(C=O)cccc4c3c(=O)n2Cc2cnco2)c(C2CC2)c1 [Example 15, 2-(2-cyclopropyl-4-methoxyphenyl)-3-(oxazol-5-ylmethyl)-4-oxo-3,4-dihydrobenzo[4,5]thieno[2,3-d]pyrimidine-8-carbaldehyde] | 1 to 100 | > 10
COc1ccc(-c2nc3sc4c(C(F)F)cccc4c3c(=O)n2Cc2cnco2)c(C2CC2)c1 [Example 16, 2-(2-cyclopropyl-4-methoxyphenyl)-8-(difluoromethyl)-3-(oxazol-5-ylmethyl)benzo[4,5]thieno[2,3-d]pyrimidin-4(3H)-one] | 1 to 100 | > 10
COc1ccc(-c2nc3sc4c(O[C@@H]5O[C@H](C(=O)O)[C@@H](O)[C@H](O)[C@H]5O)cccc4c3c(=O)n2Cc2cnco2)c(C2CC2)c1 [Example 17, (2S,3S,4S,5R,6S)-6-((2-(2-cyclopropyl-4-methoxyphenyl)-3-(oxazol-5-ylmethyl)-4-oxo-3,4-dihydrobenzo[4,5]thieno[2,3-d]pyrimidin-8-yl)oxy)-3,4,5-trihydroxytetrahydro-2H-pyran-2-carboxylic acid] | 1 to 100 | 1 to 10
COc1ccc(-c2nc3sc4c(O)c(Cl)cc(Cl)c4c3c(=O)n2Cc2cnco2)c(C2CC2)c1 [Example 18, 5,7-dichloro-2-(2-cyclopropyl-4-methoxyphenyl)-8-hydroxy-3-(oxazol-5-ylmethyl)benzo[4,5]thieno[2,3-d]pyrimidin-4(3H)-one] | 0.1 to 0.5 | 0.1 to 1
COc1cc(C2CC2)c(-c2nc3sc4c(O)c(Cl)cc(Cl)c4c3c(=O)n2Cc2cnco2)cc1Cl [Example 19, 5,7-dichloro-2-(5-chloro-2-cyclopropyl-4-methoxyphenyl)-8-hydroxy-3-(oxazol-5-ylmethyl)benzo[4,5]thieno[2,3-d]pyrimidin-4(3H)-one] | 0.1 to 0.5 | 0.1 to 1
COc1ccc(-c2nc3sc4c(OCCO)cccc4c3c(=O)n2Cc2cnco2)c(C2CC2)c1 [Example 20, 2-(2-cyclopropyl-4-methoxyphenyl)-8-(2-hydroxyethoxy)-3-(oxazol-5-ylmethyl)benzo[4,5]thieno[2,3-d]pyrimidin-4(3H)-one] | 1 to 100 | > 10
C=CCc1ccc2c(sc3nc(-c4ccc(OC)cc4C4CC4)n(Cc4cnco4)c(=O)c32)c1O [Example 21, 7-allyl-2-(2-cyclopropyl-4-methoxyphenyl)-8-hydroxy-3-(oxazol-5-ylmethyl)benzo[4,5]thieno[2,3-d]pyrimidin-4(3H)-one] | 1 to 100 | 0.1 to 1
CCCc1ccc2c(sc3nc(-c4ccc(OC)cc4C4CC4)n(Cc4cnco4)c(=O)c32)c1O [Example 22, 2-(2-cyclopropyl-4-methoxyphenyl)-8-hydroxy-3-(oxazol-5-ylmethyl)-7-propylbenzo[4,5]thieno[2,3-d]pyrimidin-4(3H)-one] | 1 to 100 | 1 to 10
COc1ccc(-c2nc3sc4c(OS(=O)(=O)O)cccc4c3c(=O)n2Cc2cnco2)c(C2CC2)c1 [Example 23, 2-(2-cyclopropyl-4-methoxyphenyl)-3-(oxazol-5-ylmethyl)-4-oxo-3,4-dihydrobenzo[4,5]thieno[2,3-d]pyrimidin-8-yl hydrogen sulfate] | 1 to 100 | 0.1 to 1
